The results in this text go back to patent US9782393B2, “Pharmaceutical compositions and methods for treating cancer and biomarkers for drug screening” (NATIONAL DEFENSE MEDICAL CENTER, priority 2013, dated 2017).

Data set [1] concerns ACHN cells. Nature of the data set: SRB assay, growth inhibition of ACHN cells. The note with it: 5 μM sorafenib, 10 μM GW5074, single or combined, 24 hours. In kind it is cell-based, Human. How it is done: Human renal carcinoma (ACHN) cells were cultured in Eagle MEM (Minimum Essential Medium) with 10% FBS (Fetal Bovine Serum) and 1% penicillin/streptomycin. Sulforhodamine B (SRB) is a negative […] with a sulfonic acid group and binds to basic amino acids of intracellular proteins in weak acidic conditions. The SRB […] was extracted from cells using weak alkaline solution and then subjected to absorbance measurement. The amount of intracellular proteins, which is an indicator for cell survival, can be calculated from the amount of SRB. ACHN or A498 cells were treated singularly with 2.5 μM sorafenib, 5 μM sorafenib, 10 μM sorafenib, GW5074, L779450 or PLX4720 for 24, 48 and 72 hours, followed by SRB assay to assess cell survival. Alternatively, ACHN cells were pre-treated with 10 μM GW5074, 10 μM L779450 or 10 μM PLX4720 for 30 minutes prior to 5 μM sorafenib treatment for additional 24, 48 and 72 hours, followed by SRB assay to assess growth inhibition.
(In general: The SRB assay estimates cell density from bound dye.)

In data set [2] the test system is ACHN cells. Nature of the data set: ACHN xenograft in immunodeficient mice, tumor volume. In kind it is in vivo. The note with it: printed as 5 μM sorafenib, 10 μM GW5074, separate or combined; once a day for three weeks; n=8. How it is done: Six-week old immnunodeficient male mice (BALB/cAnN.Cg-Foxn1^nu/CrlNarl) with an average weight of 20 grams were xenografted with 1×10^7 ACHN cells to the right by […]. The mice were maintained in a specific pathogen-free (SPF) environment. The size of tumor was measured using a digital caliper twice a week and tumor volume was calculated by the equation of length*width*height*0.5. […] A total of four groups were included in the experiment: a control group which received only vehicle (DMSO), […], 25 mg/kg GW5074, […], respectively, with 8 mice in each group.

For data set [3], the system named is Luc-ACHN-LL cells.
Protocol: Immunodeficient male mice was injected with 3×10^5 Luc-ACHN-LL cells in 50 μL PBS at the right renal capsule. In vivo luciferase activity was examined every day for up to three weeks so as to assure no leakage of cancer cells at the kidneys immediately after injection and to monitor metastasis of these cancer cells. Two to five minutes before utilizing the IVIS Xenogene system, 75 mg/kg D-Luciferin (Xenogen) in PBS was injected to the retro-orbital sinus of each mouse. Two weeks after injection of Luc-ACHN-LL cells, IVIS Xenogene system was used to monitor transfer of biological fluorescent images and to calculate the intensities of the photon signals (photons/s/cm^2/steradian). A total of five groups were included in the study: a control group which received only vehicle, and four test groups which respectively received 10 mg/kg sorafenib, 25 mg/kg GW5074, a combination therapy of 10 mg/kg sorafenib and 25 mg/kg GW5074 (the animals were fed with Sor 30 min post i.p. injection of GW), or 60 mg/kg sorafenib.
For data set [4], the system named is ACHN cells. Nature of the data set: Annexin V-FITC / propidium iodide flow cytometry, cell necroptosis. In kind it is cell-based, Human. The note with it: 24 hours, 5 μM sorafenib, 10 μM GW5074, or both. How it is done:
(§1) Cells were cultured as described in example 1, washed with phosphate buffered saline (PBS), and stained with annexin V-FITC and propidium iodide (PI) for 15 minutes. The presence of fluorescent Annexin V as well as propidium iodide (PI) was detected by flow cytometry so as to determine whether the cell death is caused by apoptosis or necrosis. The expression of c-Raf and DAPK as well as the phosphorylation status of DAPK were examined by Western blot and immunoprecipitation using antibodies. Anti-DAPK antibodies or non-immune rabbit IgG (IP: immunoglobulin) were included as negative controls, and cell survival was measured by SRB assay, as shown in example 1.
Background: Flow cytometry measures light scatter and fluorescence of single cells or particles in a stream.

In data set [5] the test system is pDAPK^S308. The class given is cell-based, Human. The note with it: ACHN cells; PP2A inhibitor, various concentrations, provided 30 minutes prior to the combination drugs. How it is done:
as §1, with “1. In this experiment, ACHN cells were treated separately with DMSO (as a control group), 5 μM sorafenib, 10 μM GW5074, or combination therapy of 5 μM sorafenib and 10 μM GW5074 for 24 hours.” for “1.”

Where [6] appears, read: 10 mg/kg sorafenib, 25 mg/kg GW5074, or both.

Read-outs that look alike come from different tables or passages of the source.

For the compound `O=C1Nc2ccc(I)cc2/C1=C/c1cc(Br)c(O)c(Br)c1` [GW5074, 3-(3,5-Dibromo-4-hydroxy-benzylidene)-5-iodo-1,3-dihydro-indol-2-one], the “growth inhibition of cells” value in data set [1] was “no growth inhibition”. Moreover, the “xenografted tumor volume, inhibition effect” value in data set [2] is “nearly no inhibition effect”. Further, the “death within weeks following injection of cancer cells (survival)” value in data set [3] (setting [6]) was no more than 5 weeks. Besides, in data set [4], the “average cell necroptosis rate” value is reported as 1.35%.
`C=C1[C@@H](O)[C@@H]2O[C@]3(CC[C@H](/C=C/[C@@H](C)[C@@H]4CC(C)=C[C@@]5(O[C@H](C[C@@](C)(O)C(=O)O)CC[C@H]5O)O4)O3)CC[C@H]2O[C@@H]1[C@@H](O)C[C@H](C)[C@H]1O[C@@]2(CCCCO2)CC[C@H]1C` [Okadaic acid]: the “inhibition of dephosphorylation of pDAPK^S308 under combination therapy” value in data set [5] is reported as “effective in inhibition of dephosphorylation of pDAPK^S308”.
Turning to `CNC(=O)c1cc(Oc2ccc(NC(=O)Nc3ccc(Cl)c(C(F)(F)F)c3)cc2)ccn1` [sorafenib], the “growth inhibition of cells” value in data set [1] is “no growth inhibition”. Moreover, in data set [2], the “xenografted tumor volume, inhibition effect” value is “nearly no inhibition effect”. The “death within weeks following injection of cancer cells (survival)” value in data set [3] (setting [6]) is recorded as no more than 8 weeks; in data set [3] (high-dose 60 mg/kg sorafenib), no more than 10 weeks. For the same compound, the body weight entry in data set [3] (mouse, in vivo, 60 mg/kg) was “loss of weight”. Further, in data set [4], the “average cell necroptosis rate” value came out at 0.77%.
